According to US9730937B2, “RAF kinase modulator compounds and methods of use thereof” (AMBIT BIOSCIENCES CORPORATION, priority 2008, dated 2017):
Read-outs that look alike come from different tables or passages of the source.

Test system: panel of 290 distinct kinases (321 in the larger panel), excluding mutant variants
[1] = no asterisk: panel of 290 distinct kinases
[2] = asterisk: panel of 321 distinct kinases
[3] = kinase selectivity score, 290 distinct kinases, class symbols

Question: For `COc1cc2ncnc(Oc3cccc(NC(=O)Nc4cc(C(C)(C)C)nn4-c4ccccc4)c3C)c2cc1OC` [Ex 289, 1-(3-tert-butyl-1-phenyl-1H-pyrazol-5-yl)-3-(3-(6,7-dimethoxyquinazolin-4-yloxy)-2-methylphenyl)urea], which S35 [1] is on record?
Answer: Its S35 is “C (0.20 < C ≦ 0.40)”.

Question: For `COCCOc1cc2ncnc(Sc3cccc(NC(=O)Nc4cc(C(C)(CF)CF)nn4-c4ccccc4)c3)c2cc1OC` [Ex 238, 1-[3-(1,3-difluoro-2-methylpropan-2-yl)-1-phenyl-1H-pyrazol-5-yl]-3-{3-[6-methoxy-7-(2-methoxyethoxy)quinazolin-4-ylthio]phenyl}urea], which S35 [2] is on record?
Answer: Its S35 is “D* (D > 0.40)”.

Question: With `COc1cc2c(Oc3cccc(NC(=O)Nc4cc(C(C)(C)C(F)(F)F)on4)c3)ncnc2cc1O` [Ex 263, 1-(3-(7-hydroxy-6-methoxyquinazolin-4-yloxy)phenyl)-3-(5-(1,1,1-trifluoro-2-methylpropan-2-yl)isoxazol-3-yl)urea] as the compound, how does the S35 [1] read?
Answer: The S35 was “C (0.20 < C ≦ 0.40)”.

Question: Which S35 (kinase selectivity score, value marked * (larger kinase panel), class symbols) does the source give for `COc1cc2ncnc(Oc3cccc(NC(=O)Nc4cc(C(C)(C)C#N)no4)c3)c2cc1OC` [Ex 125, 1-(3-(2-cyanopropan-2-yl)isoxazol-5-yl)-3-(3-(6,7-dimethoxyquinazolin-4-yloxy)phenyl)urea] here?
Answer: The S35 was “C* (0.20 < C ≦ 0.40)”.

Question: For `COCCOc1cc2ncnc(Oc3cccc(NC(=O)Nc4cc(-c5ccccc5)on4)c3)c2cc1OC` [Ex 203, 1-(3-(6-methoxy-7-(2-methoxyethoxy)quinazolin-4-yloxy)phenyl)-3-(5-phenylisoxazol-3-yl)urea], which S35 [3] is on record?
Answer: Its S35 is “B (0.10 < B ≦ 0.20)”.

Question: `CCOc1cc2c(Oc3cccc(NC(=O)Nc4cc(C(C)(C)C)nn4-c4ccccc4)c3)ncnc2cc1OC` [Ex 390, 1-(3-tert-butyl-1-phenyl-1H-pyrazol-5-yl)-3-(3-(6-ethoxy-7-methoxyquinazolin-4-yloxy)phenyl)urea] was tested. Which S35 [1] did it give?
Answer: The S35 was “D (D > 0.40)”.

Question: With `COc1ccc(-n2nc(C(C)(C)C)cc2NC(=O)Nc2cccc(Sc3ncnc4cc(OC)c(OC)cc34)c2)cc1` [Ex 362, 1-(3-tert-butyl-1-(4-methoxyphenyl)-1H-pyrazol-5-yl)-3-(3-(6,7-dimethoxyquinazolin-4-ylthio)phenyl)urea] as the compound, how does the S35 [1] read?
Answer: Its S35 is “D (D > 0.40)”.

Question: With `COc1cc2ncnc(Oc3cccc(NC(=O)Nc4cc(C(C)(C)C)nn4-c4ccc(C)cc4C)c3)c2cc1OC` [Ex 282, 1-(3-tert-butyl-1-(2,4-dimethylphenyl)-1H-pyrazol-5-yl)-3-(3-(6,7-dimethoxyquinazolin-4-yloxy)phenyl)urea] as the compound, how does the S35 [1] read?
Answer: Its S35 is “C (0.20 < C ≦ 0.40)”.

Question: For `COc1cc2ncnc(Oc3cccc(NC(=O)Nc4cc(C(C)(C)C(F)(F)F)on4)c3)c2cc1OC` [Ex 259, 1-(3-(6,7-dimethoxyquinazolin-4-yloxy)phenyl)-3-(5-(1,1,1-trifluoro-2-methylpropan-2-yl)isoxazol-3-yl)urea], which S35 [1] is on record?
Answer: Its S35 is “C (0.20 < C ≦ 0.40)”.

Question: With `COCCOc1cc2ncnc(Sc3cccc(NC(=O)Nc4cc(C(C)(C)C)nn4-c4cccc(C)c4)c3)c2cc1OC` [Ex 287, 1-(3-tert-butyl-1-m-tolyl-1H-pyrazol-5-yl)-3-(3-(6-methoxy-7-(2-methoxyethoxy)quinazolin-4-ylthio)phenyl)urea] as the compound, how does the S35 [1] read?
Answer: Its S35 is “D (D > 0.40)”.

Question: `COc1cc2ncnc(Oc3cccc(NC(=O)Nc4cc(C(C)(CF)CF)on4)c3F)c2cc1OC` [Ex 297, 1-(5-(1,3-difluoro-2-methylpropan-2-yl)isoxazol-3-yl)-3-(3-(6,7-dimethoxyquinazolin-4-yloxy)-2-fluorophenyl)urea] was tested. Which S35 [1] did it give?
Answer: Its S35 is “C (0.20 < C ≦ 0.40)”.

Question: How did the S35 [1] turn out when `COc1cc2ncnc(Sc3cccc(NC(=O)Nc4cc(C(F)(F)F)no4)c3)c2cc1OC` [Ex 382, 1-(3-(6,7-dimethoxyquinazolin-4-ylthio)phenyl)-3-(3-(trifluoromethyl)isoxazol-5-yl)urea] was run?
Answer: The S35 was “C (0.20 < C ≦ 0.40)”.

Question: Which S35 [1] does the source give for `COc1cc2ncnc([S+]([O-])c3cccc(NC(=O)Nc4cc(C(C)(C)C)on4)c3)c2cc1OC` (stereo not drawn) [Ex 253, 1-(5-tert-butylisoxazol-3-yl)-3-(3-(6,7-dimethoxyquinazolin-4-ylsulfinyl)phenyl)urea] here?
Answer: The S35 was “C (0.20 < C ≦ 0.40)”.

Question: `COCCOc1cc2ncnc(Oc3cccc(NC(=O)Nc4cc(C5CCCC5)no4)c3)c2cc1OC` [Ex 207, 1-(3-cyclopentylisoxazol-5-yl)-3-(3-(6-methoxy-7-(2-methoxyethoxy)quinazolin-4-yloxy)phenyl)urea] was tested. Which S35 [2] did it give?
Answer: Its S35 is “C* (0.20 < C ≦ 0.40)”.

Question: How did the S35 [2] turn out when `COCCOc1cc2ncnc(Sc3cccc(NC(=O)Nc4cc(C5CCCC5)on4)c3)c2cc1OC` [Ex 235, 1-(5-cyclopentylisoxazol-3-yl)-3-(3-(6-methoxy-7-(2-methoxyethoxy)quinazolin-4-ylthio)phenyl)urea] was run?
Answer: The S35 was “C* (0.20 < C ≦ 0.40)”.

Question: `COc1cc2ncnc(Oc3cccc(NC(=O)Nc4cc(C(C)(C)C)nn4-c4ccccc4F)c3)c2cc1OC` [Ex 372, 1-(3-tert-butyl-1-(2-fluorophenyl)-1H-pyrazol-5-yl)-3-(3-(6,7-dimethoxyquinazolin-4-yloxy)phenyl)urea] was tested. Which S35 [1] did it give?
Answer: Its S35 is “D (D > 0.40)”.

Question: For `COc1ccc(-n2nc(C(C)(C)C)cc2NC(=O)Nc2cccc(Oc3ncnc4cc(OC)c(OC)cc34)c2)cc1` [Ex 361, 1-(3-tert-butyl-1-(4-methoxyphenyl)-1H-pyrazol-5-yl)-3-(3-(6,7-dimethoxyquinazolin-4-yloxy)phenyl)urea], which S35 [1] is on record?
Answer: Its S35 is “C (0.20 < C ≦ 0.40)”.

Question: For `COc1cc2ncnc(Oc3cccc(NC(=O)Nc4cc(C(C)(C)C(F)(F)F)on4)c3)c2cc1O` [Ex 264, 1-(3-(6-hydroxy-7-methoxyquinazolin-4-yloxy)phenyl)-3-(5-(1,1,1-trifluoro-2-methylpropan-2-yl)isoxazol-3-yl)urea], which S35 [1] is on record?
Answer: The S35 was “C (0.20 < C ≦ 0.40)”.

Question: For `COCCOc1cc2ncnc(Oc3cccc(NC(=O)Nc4cc(C(C)(F)F)no4)c3)c2cc1OC` [Ex 211, 1-(3-(1,1-difluoroethyl)isoxazol-5-yl)-3-(3-(6-methoxy-7-(2-methoxyethoxy)quinazolin-4-yloxy)phenyl)urea], which S35 [2] is on record?
Answer: Its S35 is “C* (0.20 < C ≦ 0.40)”.

Question: With `COc1cc2ncnc(Oc3cccc(NC(=O)Nc4cc(C(C)(C)C)nn4-c4ccccc4)c3F)c2cc1OC` [Ex 295, 1-(3-tert-butyl-1-phenyl-1H-pyrazol-5-yl)-3-(3-(6,7-dimethoxyquinazolin-4-yloxy)-2-fluorophenyl)urea] as the compound, how does the S35 [1] read?
Answer: Its S35 is “C (0.20 < C ≦ 0.40)”.

Question: For `COc1cc2ncnc(Oc3cccc(NC(=O)Nc4cc(C(F)(F)C(F)(F)F)nn4-c4ccccc4)c3)c2cc1OC` [Ex 304, 1-(3-(6,7-dimethoxyquinazolin-4-yloxy)phenyl)-3-(3-(perfluoroethyl)-1-phenyl-1H-pyrazol-5-yl)urea], which S35 [1] is on record?
Answer: Its S35 is “C (0.20 < C ≦ 0.40)”.

Question: How did the S35 [1] turn out when `CCOc1cc2c(Sc3cccc(NC(=O)Nc4cc(C(C)(CF)CF)on4)c3)ncnc2cc1OC` [Ex 395, 1-(5-(1,3-difluoro-2-methylpropan-2-yl)isoxazol-3-yl)-3-(3-(6-ethoxy-7-methoxyquinazolin-4-ylthio)phenyl)urea] was run?
Answer: The S35 was “C (0.20 < C ≦ 0.40)”.

Question: Which S35 [2] does the source give for `COCCOc1cc2ncnc(Oc3cccc(NC(=O)Nc4cc(C(F)(F)F)nn4-c4ccc(C)cc4)c3)c2cc1OC` [Ex 227, 1-{3-[6-methoxy-7-(2-methoxyethoxy)quinazolin-4-yloxy]phenyl}-3-[1-p-tolyl-3-(trifluoromethyl)-1H-pyrazol-5-yl]urea] here?
Answer: Its S35 is “C* (0.20 < C ≦ 0.40)”.

Question: How did the S35 [1] turn out when `COc1cc2ncnc(Oc3cccc(NC(=O)Nc4cc(C(C)(C)C)nn4-c4cccc(F)c4)c3)c2cc1OC` [Ex 359, 1-(3-tert-butyl-1-(3-fluorophenyl)-1H-pyrazol-5-yl)-3-(3-(6,7-dimethoxyquinazolin-4-yloxy)phenyl)urea] was run?
Answer: The S35 was “D (D > 0.40)”.

Question: `CCOc1cc2c(Oc3cccc(NC(=O)Nc4cc(C(C)(CF)CF)on4)c3)ncnc2cc1OC` [Ex 393, 1-(5-(1,3-difluoro-2-methylpropan-2-yl)isoxazol-3-yl)-3-(3-(6-ethoxy-7-methoxyquinazolin-4-yloxy)phenyl)urea] was tested. Which S35 [1] did it give?
Answer: Its S35 is “C (0.20 < C ≦ 0.40)”.

Question: Which S35 [1] does the source give for `COc1cc2ncnc(Oc3cc(NC(=O)Nc4cc(C(C)(C)F)no4)c(F)cc3F)c2cc1OC` [Ex 269, 1-(5-(6,7-dimethoxyquinazolin-4-yloxy)-2,4-difluorophenyl)-3-(3-(2-fluoropropan-2-yl)isoxazol-5-yl)urea] here?
Answer: The S35 was “D (D > 0.40)”.

Question: With `COCCOc1cc2ncnc(Sc3cccc(NC(=O)Nc4cc(C(C)(C)C)nn4-c4ccc(C)cc4C)c3)c2cc1OC` [Ex 283, 1-(3-tert-butyl-1-(2,4-dimethylphenyl)-1H-pyrazol-5-yl)-3-(3-(6-methoxy-7-(2-methoxyethoxy)quinazolin-4-ylthio)phenyl)urea] as the compound, how does the S35 [1] read?
Answer: Its S35 is “C (0.20 < C ≦ 0.40)”.

Question: `COCCOc1cc2ncnc(Oc3cccc(NC(=O)Nc4cc(C5CCCC5)on4)c3)c2cc1OC` [Ex 219, 1-(5-cyclopentylisoxazol-3-yl)-3-(3-(6-methoxy-7-(2-methoxyethoxy)quinazolin-4-yloxy)phenyl)urea] was tested. Which S35 [2] did it give?
Answer: Its S35 is “C* (0.20 < C ≦ 0.40)”.

Question: How did the S35 [1] turn out when `CCOc1cc2ncnc(Oc3cccc(NC(=O)Nc4cc(C(C)(C)C)nn4-c4ccccc4)c3)c2cc1OC` [Ex 387, 1-(3-tert-butyl-1-phenyl-1H-pyrazol-5-yl)-3-(3-(7-ethoxy-6-methoxyquinazolin-4-yloxy)phenyl)urea] was run?
Answer: Its S35 is “D (D > 0.40)”.

Question: `CCOc1cc2c(Sc3cccc(NC(=O)Nc4cc(C(C)(C)C(F)(F)F)on4)c3)ncnc2cc1OC` [Ex 262, 1-(3-(6-ethoxy-7-methoxyquinazolin-4-ylthio)phenyl)-3-(5-(1,1,1-trifluoro-2-methylpropan-2-yl)isoxazol-3-yl)urea] was tested. Which S35 [1] did it give?
Answer: The S35 was “C (0.20 < C ≦ 0.40)”.

Question: Which S35 [2] does the source give for `COc1cc2ncnc(Sc3cccc(NC(=O)Nc4ccc(OC)c(C(F)(F)F)c4)c3)c2cc1OCCCN1CCS(=O)(=O)CC1` [Ex 246, 1-(4-methoxy-3-(trifluoromethyl)phenyl)-3-(3-(7-methoxy-6-(3-(4,4-dioxothiomorpholino)propoxy)quinazolin-4-ylthio)phenyl)urea] here?
Answer: Its S35 is “C* (0.20 < C ≦ 0.40)”.

Question: For `COCCOc1cc2ncnc(Oc3cccc(NC(=O)Nc4cc(C(F)(F)F)no4)c3)c2cc1OC` [Ex 229, 1-(3-(6-methoxy-7-(2-methoxyethoxy)quinazolin-4-yloxy)phenyl)-3-(3-(trifluoromethyl)isoxazol-5-yl)urea], which S35 [2] is on record?
Answer: The S35 was “C* (0.20 < C ≦ 0.40)”.

Question: With `COc1cc(NC(=O)Nc2cccc(Oc3ncnc4cc(OC)c(OC)cc34)c2)cc(C(F)(F)F)c1` [Ex 116, 1-(3-(6,7-dimethoxyquinazolin-4-yloxy)phenyl)-3-(3-methoxy-5-(trifluoromethyl)phenyl)urea] as the compound, how does the S35 [3] read?
Answer: Its S35 is “B (0.10 < B ≦ 0.20)”.
